Data: ChEMBL document CHEMBL1201862, “PubChem BioAssay data set” (2004)
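Values below derive from 48-hour exposures of cells grown in 96-well plates, with endpoints linearly interpolated between the two concentrations bracketing the appropriate inhibition level. The concentration for 50% growth inhibition is given as GI50.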 Calls of active or inactive are those of the source. Cut-off read from the data, not from the text of the source: active = GI50 up to about 1.1 µM and inactive = higher.

Key:
Experiment in all cases: inhibition of tumour cell growth, NCI panel, 48 h
[1] = test system: K562
[2] = test system: NCI-H460
[3] = test system: DU-145
[4] = test system: UO-31
[5] = test system: NCI-H522
[6] = test system: SN12C
[7] = test system: SK-MEL-5
[8] = test system: SW-620
[9] = test system: SF-539
[10] = test system: A549
[11] = test system: NCI-H23
[12] = test system: HOP-92
[13] = test system: 786-0
[14] = test system: ACHN
[15] = test system: T47D
[16] = test system: SK-MEL-2
[17] = test system: SK-OV-3
[18] = test system: LOX IMVI
[19] = test system: MDA-MB-231
[20] = test system: Malme-3M

Compound	GI50 [1]	GI50 [2]	GI50 [3]	GI50 [4]	GI50 [5]	GI50 [6]	GI50 [7]	GI50 [8]	GI50 [9]	GI50 [10]	GI50 [11]	GI50 [12]	GI50 [13]	GI50 [14]	GI50 [15]	GI50 [16]	GI50 [17]	GI50 [18]	GI50 [19]	GI50 [20]
COc1cccc(/N=N/C(=NNC(=O)c2ccc(C)cc2)c2ccc(N(C)C)cc2)c1	44 µM (inactive)	> 100 µM (inactive)	> 100 µM (inactive)	> 100 µM (inactive)	> 100 µM (inactive)	> 100 µM (inactive)	98.2 µM (inactive)	> 100 µM (inactive)	> 100 µM (inactive)	> 100 µM (inactive)	> 100 µM (inactive)	> 100 µM (inactive)	> 100 µM (inactive)	> 100 µM (inactive)	0.832 µM (active)	> 100 µM (inactive)	> 100 µM (inactive)	> 100 µM (inactive)	> 100 µM (inactive)	–
Cc1cc(C)c2c(c1)C/C(=C\c1cccc(C)c1C(=O)O)C2=O	31.1 µM (inactive)	41.8 µM (inactive)	52.2 µM (inactive)	39.6 µM (inactive)	30.8 µM (inactive)	42.6 µM (inactive)	34.7 µM (inactive)	64.4 µM (inactive)	37.2 µM (inactive)	43.3 µM (inactive)	63.2 µM (inactive)	> 100 µM (inactive)	57.3 µM (inactive)	87.7 µM (inactive)	> 100 µM (inactive)	89.9 µM (inactive)	–	69.5 µM (inactive)	36.1 µM (inactive)	58.1 µM (inactive)
Oc1ccc2ccccc2c1/N=N\c1cccc2ccccc12	> 100 µM (inactive)	–	> 100 µM (inactive)	> 100 µM (inactive)	82.6 µM (inactive)	> 100 µM (inactive)	> 100 µM (inactive)	> 100 µM (inactive)	–	> 100 µM (inactive)	> 100 µM (inactive)	> 100 µM (inactive)	> 100 µM (inactive)	> 100 µM (inactive)	> 100 µM (inactive)	> 100 µM (inactive)	> 100 µM (inactive)	> 100 µM (inactive)	> 100 µM (inactive)	–
COC(=O)C1CCC(=O)N1C(c1cc(OC)c(OC)c(OC)c1)c1cccc2ccccc12 (stereo not given)	75.9 µM (inactive)	> 100 µM (inactive)	> 100 µM (inactive)	61.2 µM (inactive)	51.5 µM (inactive)	> 100 µM (inactive)	–	> 100 µM (inactive)	> 100 µM (inactive)	> 100 µM (inactive)	–	38.2 µM (inactive)	> 100 µM (inactive)	> 100 µM (inactive)	> 100 µM (inactive)	> 100 µM (inactive)	25.4 µM (inactive)	> 100 µM (inactive)	> 100 µM (inactive)	–
N#C/C(=C\N1CCNC1=S)C(=O)c1ccc2ccccc2c1	> 100 µM (inactive)	> 100 µM (inactive)	> 100 µM (inactive)	> 100 µM (inactive)	> 100 µM (inactive)	> 100 µM (inactive)	> 100 µM (inactive)	> 100 µM (inactive)	> 100 µM (inactive)	> 100 µM (inactive)	> 100 µM (inactive)	> 100 µM (inactive)	> 100 µM (inactive)	> 100 µM (inactive)	67 µM (inactive)	> 100 µM (inactive)	> 100 µM (inactive)	> 100 µM (inactive)	> 100 µM (inactive)	–
COc1cc2ccnc3c2c(c1O)N(C)C=C3	4.68 µM (inactive)	24.9 µM (inactive)	23.7 µM (inactive)	7.66 µM (inactive)	1.59 µM (inactive)	13.5 µM (inactive)	12.8 µM (inactive)	12 µM (inactive)	–	20.2 µM (inactive)	17.1 µM (inactive)	21.2 µM (inactive)	7.19 µM (inactive)	9.48 µM (inactive)	7.38 µM (inactive)	17.7 µM (inactive)	13.4 µM (inactive)	8.39 µM (inactive)	22.1 µM (inactive)	6.12 µM (inactive)
O=P1(O)c2ccccc2CSCc2ccccc21	> 100 µM (inactive)	> 100 µM (inactive)	> 100 µM (inactive)	> 100 µM (inactive)	> 100 µM (inactive)	> 100 µM (inactive)	> 100 µM (inactive)	> 100 µM (inactive)	> 100 µM (inactive)	> 100 µM (inactive)	> 100 µM (inactive)	> 100 µM (inactive)	> 100 µM (inactive)	> 100 µM (inactive)	> 100 µM (inactive)	> 100 µM (inactive)	> 100 µM (inactive)	> 100 µM (inactive)	> 100 µM (inactive)	–
CC(C)CC(=O)NC(NC(C)C)(C(F)(F)F)C(F)(F)F	> 100 µM (inactive)	> 100 µM (inactive)	> 100 µM (inactive)	> 100 µM (inactive)	> 100 µM (inactive)	> 100 µM (inactive)	> 100 µM (inactive)	> 100 µM (inactive)	> 100 µM (inactive)	> 100 µM (inactive)	–	> 100 µM (inactive)	> 100 µM (inactive)	> 100 µM (inactive)	> 100 µM (inactive)	> 100 µM (inactive)	–	> 100 µM (inactive)	> 100 µM (inactive)	> 100 µM (inactive)
COc1ccc(/N=C2\C(=N/c3ccc(OC)cc3)N(c3ccccc3[N+](=O)[O-])C(=S)N2c2ccc(OC)cc2)cc1	35.5 µM (inactive)	–	> 100 µM (inactive)	78 µM (inactive)	96.4 µM (inactive)	> 100 µM (inactive)	35.2 µM (inactive)	> 100 µM (inactive)	> 100 µM (inactive)	> 100 µM (inactive)	> 100 µM (inactive)	> 100 µM (inactive)	> 100 µM (inactive)	> 100 µM (inactive)	26 µM (inactive)	> 100 µM (inactive)	> 100 µM (inactive)	–	7.78 µM (inactive)	–
O=S(=O)(O)c1ccc(/N=N/c2ccccc2)cc1	> 100 µM (inactive)	> 100 µM (inactive)	> 100 µM (inactive)	> 100 µM (inactive)	> 100 µM (inactive)	> 100 µM (inactive)	> 100 µM (inactive)	> 100 µM (inactive)	> 100 µM (inactive)	> 100 µM (inactive)	> 100 µM (inactive)	> 100 µM (inactive)	> 100 µM (inactive)	> 100 µM (inactive)	> 100 µM (inactive)	> 100 µM (inactive)	> 100 µM (inactive)	> 100 µM (inactive)	> 100 µM (inactive)	–
CC(C)(C)OC(=O)NCCC1CNc2ccccc21 (stereo not given)	> 100 µM (inactive)	> 100 µM (inactive)	> 100 µM (inactive)	> 100 µM (inactive)	> 100 µM (inactive)	–	> 100 µM (inactive)	> 100 µM (inactive)	–	> 100 µM (inactive)	> 100 µM (inactive)	93.1 µM (inactive)	> 100 µM (inactive)	> 100 µM (inactive)	> 100 µM (inactive)	> 100 µM (inactive)	> 100 µM (inactive)	–	> 100 µM (inactive)	> 100 µM (inactive)
